Key:
MDA-MB-435s cells [1] = type: cell-based, human; conditions: current-clamp, FIG. 2D
Experimental: D—Variations of membrane potential recorded in control conditions (PSS without drugs, n=11) and in presence of TEA (n=7), 4-AP (n=8) and TEA plus 4-AP (n=3). Membrane potential was measured in current-clamp mode (I=0) just after the disruption of the patch membrane.
(§3) Whole-cell potassium currents and intracellular Ca^2+ ([Ca^2+]i) measurements were recorded as described (Roger S, Potier M, Vandier C, Le Guennec J Y, Besson P. Description and role in proliferation of iberiotoxin-sensitive currents in different human mammary epithelial normal and cancerous cells. (Biochim Biophys Acta 2004; 1667:190-9.). Signals were captured using 1322-A Digidata converter (Axon Instruments, USA) and pClamp 8.1 software (Axon Instruments, USA). The analysis were performed using Clampfit 8.1 and Origin 7.0 softwares (Microcal Software, Northampton, Mass., USA).
(§4) The physiological saline solution (PSS) in mM: NaCl 140, MgCl2 1, KCl 4, CaCl2 2, D-glucose 11.1, and HEPES 10, adjusted to pH 7.4 with NaOH. The pipette solution for the whole-cell recording, pCa=7 was (in mM): K-glutamate 125, KCl 20, CaCl2 0.37, MgCl2 1, Mg-ATP 1, EGTA 1, HEPES 10, adjusted to pH 7.2 with KOH. […] All drugs and chemicals were purchased from Sigma-Aldrich (St Quentin, France), except Lei-Dab7 which was a generous gift from Dr. J. M. Sabatier, UMR CNRS 6560, Marseille, France.

SK3 = SK3 (Homo sapiens, UniProt Q9UGI6); conditions: apamin: low concentration (1 nM); cited from earlier work
MDA-MB-435s cells [2] = conditions: for decrease of outward currents: FIG. 2C
Experimental: Currents were generated by stepwise 8 mV depolarizing pulses (400 ms duration; 5 sec intervals) from a constant holding potential of −70 mV up to +58 mV. Signals were filtered at 1 kHz and digitized at 10 kHz.
B, C—Current-density was obtained by dividing the averaged steady-state current elicited at +26 mV (recorded during the latest 50 ms of the pulse) by the respective cell capacitance. Membrane capacitance was calculated by integrating the capacitive current measured during a 10 mV voltage step.
as §3, §4

SK2 = SK2 (Homo sapiens, UniProt Q9H2S1); conditions: apamin: low concentration (1 nM); cited from earlier work
MDA-MB-435s cells [3] = type: cell-based, human; conditions: FIG. 4A; for number of migrating cells after siRNA transfection: MDA-MB-435s, 24, 48, 72 h after transfection
Experimental: Cells were seeded at 40000 in a cell culture insert in DMEM with 5% FBS±drugs or [K^+] 60 mM. […] 60 mM. After 24 h, cells of the lower compartment were stained with hematoxylin (A, bottom) and counted. The normalized cell number corresponded to the ratio of total number of migrating cells in presence of drug or [K^+] 60 mM/total number of migrating cells in control experiments. […] Scale bar=10 μm for the two panels.
(§1) Cell proliferation was determined using the tetrazolium salt reduction method, as described (Roger S, Potier M, Vandier C, Le Guennec J Y, Besson P. Description and role in proliferation of iberiotoxin-sensitive currents in different human mammary epithelial normal and cancerous cells. Biochim Biophys Acta 2004; 1667:190-9.). Cells were seeded on 24-well plates and grown for 48 h. […] Cell migration was analyzed in 24-well plates receiving 8-μm pore size polyethylene terephtalate membrane cell culture inserts (Becton Dickinson, France), as described (Roger S, Potier M, Vandier C, Le Guennec J Y, Besson P. Description and role in proliferation of iberiotoxin-sensitive currents in different human mammary epithelial normal and cancerous cells. Biochim Biophys Acta 2004; 1667:190-9.).

SK3 protein [4] = test: Western blot of SK3 protein after siRNA transfection, 518A2; type: cell-based, human; conditions: 518A2, 48 hours after transfection vs scrambled-siRNA, FIG. 8A
Experimental: FIG. 8A—Western blot patterns showing the silencing effect on the expression of SK3 protein of two siRNAs designed against SK3 mRNA. Cells were transfected with siRNA-lipofectamine complexes for 48 h. A scrambled-siRNA was used as negative control. siRNA oligonucleotide sequences are listed in the Materials and Methods section.
(§2) For Western blot experiments, proteins were electrotransferred onto polyvinylidene fluoride membranes which were incubated with antibodies directed against SK2 and SK3 proteins (1:1000) followed by incubation with a horseradish peroxidase-conjugated anti-rabbit IgG (1:5000; Tebu-Bio, France). Anti-SK2 directed against amino acids 542-559 and anti-SK3 directed against amino acids 2-21 (Sigma-Aldrich, France) were used for Western blot and immunocytochemical experiments. Anti-Actin directed against amino acids 20-33 (Sigma-Aldrich, France) was used for western blot loading control experiments.
Two SK3 specific siRNA were designed: first set, hSK3-ex1-Sense 5′-GAAAGCGACUGAGUGACUAdTdT-3′ (sequence SEQ ID No. 5) and hSK3-ex1-Antisense 5′-UAGUCACUCAGUCGCUUCdTdT-3′, (sequence SEQ ID N 06) located in exon 1; second set, hSK3-ex3-Sense 5′-CCAUUCCUGGCGAGUACAAdTdT-3′ (sequence SEQ ID No. 7) and hSK3-ex3-Antisense 5′-UUGUACUCGCCAGGAAUGGdTdT-3′, (sequence SEQ ID No. 8) located in exon 3. […]

SK3 protein [5] = test: Western blot of SK3 protein after siRNA transfection, MDA-MB-435s; type: cell-based, human; conditions: 24, 48, 72 h after transfection vs scrambled-siRNA, greatest effect at 72 hours
Experimental: A—Top, Western blot patterns showing the silencing effect on the expression of SK3 protein—of two siRNAs designed against SK3 mRNA. Cells were transfected with siRNA-lipofectamine complexes for 24 h, 48 h and 72 h. A scrambled-siRNA was used as negative control. SiRNA oligonucleotide sequences are listed in the Materials and Methods section. Bottom, Histograms showing the inhibitory effect on […] cell migration after 24 h, 48 h and 72 h siRNA transfection with or without 10 nM apamin. Results from two separate experiments performed in triplicate are expressed as mean±S.E.M. Normalization of cell number performed as described in the legend of FIG. 1. Note that the cells have lost their sensitivity for apamin after siRNA transfection, indicating a specific effect on SK3 protein.
as §2, with “control experiments. […]” for “control experiments.”

518A2 cells = test: Cell migration, 518A2 melanoma cells; type: cell-based; conditions: 518A2, 48 hours after transfection, FIG. 8B
Experimental: Histograms showing the effect of 10 nM apamin on cell migration (FIG. 5A). Cells were seeded at 40000 in a cell culture insert in DMEM with 5% FBS±apamin. The lower compartment of the insert contained DMEM with 10% FBS as a chemoattractant±apamin. After 24 h, cells of the lower side were stained with hematoxylin (FIG. 5B, right) and counted. The normalized cell number corresponded to the ratio of total number of migrating cells in presence of apamin/total number of migrating cells in control experiments. The apamin concentration selected has no effect on cell proliferation and viability. […] Mammary cancer MDA-MB-435s cells were used as control cell. […]
as §1, with “1667:190-9.).” for “1667:190-9.). Cells were seeded on 24-well plates and grown for 48 h.”

Chain of SK3 protein (Q9UGI6 other isoform, or with tags, fused parts or gaps DUP76-80): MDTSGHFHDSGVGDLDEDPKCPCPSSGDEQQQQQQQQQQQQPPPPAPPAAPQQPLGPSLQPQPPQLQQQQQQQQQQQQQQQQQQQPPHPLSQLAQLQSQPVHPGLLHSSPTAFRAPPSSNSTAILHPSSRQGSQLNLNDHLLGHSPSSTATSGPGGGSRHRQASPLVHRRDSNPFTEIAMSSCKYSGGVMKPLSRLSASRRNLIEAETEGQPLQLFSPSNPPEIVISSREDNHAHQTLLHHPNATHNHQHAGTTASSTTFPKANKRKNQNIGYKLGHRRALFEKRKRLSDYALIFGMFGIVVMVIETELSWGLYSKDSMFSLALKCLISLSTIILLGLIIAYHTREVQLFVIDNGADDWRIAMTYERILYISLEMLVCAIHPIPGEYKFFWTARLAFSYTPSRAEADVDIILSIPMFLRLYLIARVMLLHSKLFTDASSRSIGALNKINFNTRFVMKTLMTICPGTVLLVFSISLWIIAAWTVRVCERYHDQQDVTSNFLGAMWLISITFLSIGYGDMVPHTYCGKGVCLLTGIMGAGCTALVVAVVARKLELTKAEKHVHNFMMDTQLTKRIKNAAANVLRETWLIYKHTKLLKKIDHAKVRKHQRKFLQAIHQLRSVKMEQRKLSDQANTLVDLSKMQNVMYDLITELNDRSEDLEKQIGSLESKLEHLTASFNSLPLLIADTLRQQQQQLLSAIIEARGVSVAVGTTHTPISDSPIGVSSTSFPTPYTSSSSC
Chain of SK3 (Q9UGI6 whole entry): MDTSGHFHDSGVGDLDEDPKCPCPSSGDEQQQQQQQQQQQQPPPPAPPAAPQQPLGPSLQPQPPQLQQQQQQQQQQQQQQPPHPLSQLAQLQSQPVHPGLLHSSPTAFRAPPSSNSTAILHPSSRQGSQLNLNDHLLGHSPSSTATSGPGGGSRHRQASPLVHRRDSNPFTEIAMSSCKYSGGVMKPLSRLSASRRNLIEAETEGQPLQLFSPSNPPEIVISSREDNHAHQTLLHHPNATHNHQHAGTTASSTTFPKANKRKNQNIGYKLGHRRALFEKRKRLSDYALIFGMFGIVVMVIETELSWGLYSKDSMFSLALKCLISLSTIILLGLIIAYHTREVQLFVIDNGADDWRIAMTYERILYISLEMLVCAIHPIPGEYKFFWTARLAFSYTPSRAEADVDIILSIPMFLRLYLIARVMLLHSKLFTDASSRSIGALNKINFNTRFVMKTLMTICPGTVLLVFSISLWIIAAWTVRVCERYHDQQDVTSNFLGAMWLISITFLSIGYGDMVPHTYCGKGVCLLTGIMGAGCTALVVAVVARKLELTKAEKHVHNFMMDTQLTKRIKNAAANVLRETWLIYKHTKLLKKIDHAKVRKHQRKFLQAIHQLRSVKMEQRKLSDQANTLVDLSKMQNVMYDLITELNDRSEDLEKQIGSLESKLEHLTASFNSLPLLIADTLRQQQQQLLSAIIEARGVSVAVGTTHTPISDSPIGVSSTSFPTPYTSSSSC
Chain of SK2 (Q9H2S1 whole entry): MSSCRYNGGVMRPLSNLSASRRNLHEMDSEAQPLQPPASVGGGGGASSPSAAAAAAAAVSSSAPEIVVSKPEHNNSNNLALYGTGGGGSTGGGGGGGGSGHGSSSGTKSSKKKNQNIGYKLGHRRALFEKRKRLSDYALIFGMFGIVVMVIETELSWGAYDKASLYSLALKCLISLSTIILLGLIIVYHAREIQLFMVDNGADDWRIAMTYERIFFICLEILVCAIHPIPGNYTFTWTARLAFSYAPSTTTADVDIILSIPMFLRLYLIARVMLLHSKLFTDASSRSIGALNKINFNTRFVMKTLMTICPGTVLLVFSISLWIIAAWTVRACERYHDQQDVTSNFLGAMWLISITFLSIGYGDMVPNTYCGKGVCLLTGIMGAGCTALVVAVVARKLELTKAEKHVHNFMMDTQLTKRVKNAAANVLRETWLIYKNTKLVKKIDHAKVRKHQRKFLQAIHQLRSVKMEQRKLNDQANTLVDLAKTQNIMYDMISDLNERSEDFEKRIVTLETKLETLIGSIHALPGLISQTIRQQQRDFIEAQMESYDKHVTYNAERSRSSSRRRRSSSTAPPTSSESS

Molecule	effect on membrane potential (MDA-MB-435s cells [1])	block of SK3 channel (SK3)	decrease of outward currents (MDA-MB-435s cells [2])	number of migrating cells after siRNA transfection (MDA-MB-435s cells [3])	SK3 expression (Western blot) (SK3 protein [5])	further results
Nc1ccncc1 [4-AP, 4-aminopyridine]	depolarized	blocks	50%	–	–	–
CC[N+](CC)(CC)CC [TEA, tetraethylammonium]	depolarized	blocks	50%	–	–	block of SK2 channel (SK2): blocks
CC(C)C[C@@H]1NC(=O)[C@H](C)NC(=O)[C@H]([C@@H](C)O)NC(=O)[C@H](CCC(=O)O)NC(=O)[C@@H]2CCCN2C(=O)[C@H](C)NC(=O)[C@H](CCCCN)NC(=O)[C@@H]2CSSC[C@@H](C(=O)N[C@@H](CCC(N)=O)C(=O)N[C@@H](CCC(N)=O)C(=O)N[C@@H](Cc3cnc[nH]3)C(N)=O)NC(=O)[C@H](CCCNC(=N)N)NC(=O)[C@H](CCCNC(=N)N)NC(=O)[C@H](C)NC(=O)[C@H](CSSC[C@H](N)C(=O)N[C@@H](CC(N)=O)C(=O)N2)NC1=O [apamin]	–	–	–	–	–	IC50 (MDA-MB-435s cells [2]; read-out: estimated IC50 of block of outward currents, whole-cell, dose-dependent, FIG. 2B): < 0.1 nM
ΔExon1-siRNA: siRNA against SK3 exon 1, sense 5′-GAAAGCGACUGAGUGACUAdTdT-3′ (SEQ ID No. 5), antisense SEQ ID No. 6 (sense GAAAGCGACUGAGUGACUADTDT; antisense UAGUCACUCAGUCGCUUCDTDT; chemistry not fully specified)	–	–	–	markedly reduced	marked suppression	SK3 expression (Western blot) (SK3 protein [4]): decrease; number of migrating cells after siRNA transfection (518A2 cells): markedly reduced
ΔExon3-siRNA: siRNA against SK3 exon 3, sense 5′-CCAUUCCUGGCGAGUACAAdTdT-3′ (SEQ ID No. 7), antisense SEQ ID No. 8 (sense CCAUUCCUGGCGAGUACAADTDT; antisense UUGUACUCGCCAGGAAUGGDTDT; chemistry not fully specified)	–	–	–	markedly reduced	marked suppression	relative efficiency of the siRNAs (Western blot and migration) (MDA-MB-435s cells [3]; MDA-MB-435s): more efficient than ΔExon1-siRNA

From patent US8084196B2, “Method for the in vitro screening of anti-cancer compounds that inhibits SK3 activity, and said anti-cancer compounds” (priority 2006, dated 2011)
